This is an account of results in patent publication US10669258B2, “3-sulfonyl-5-aminopyridine-2,4-diol APJ agonists” (BRISTOL-MYERS SQUIBB COMPANY, priority 2016, dated 2020).

This test deals with T1, human APJ receptor (Homo sapiens, UniProt P35414).
T1 construct: expressed in transfected cells; host or cells: HEK293
T1 sequence (P35414 1-380): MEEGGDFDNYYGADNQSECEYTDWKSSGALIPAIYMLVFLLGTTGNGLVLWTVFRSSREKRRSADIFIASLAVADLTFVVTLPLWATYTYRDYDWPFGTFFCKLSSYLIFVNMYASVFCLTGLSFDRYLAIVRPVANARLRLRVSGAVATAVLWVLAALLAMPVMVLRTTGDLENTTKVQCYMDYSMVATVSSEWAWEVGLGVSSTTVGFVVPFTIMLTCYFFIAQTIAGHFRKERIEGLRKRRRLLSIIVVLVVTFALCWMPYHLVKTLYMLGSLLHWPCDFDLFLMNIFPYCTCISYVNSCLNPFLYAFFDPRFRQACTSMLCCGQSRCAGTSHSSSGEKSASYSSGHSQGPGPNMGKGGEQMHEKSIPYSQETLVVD
Briefly: Intracellular cAMP accumulation assay (APJ hcAMP, HTRF). It is filed as cell-based. Particulars: HEK293 cells stably expressing human APJ receptor; inhibition of forskolin-mediated cAMP production; Table 1; read-out: hAPJ cAMP EC50 Potency range. Summed up: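 HEK293 cells stably expressing the receptor (5,000/well) treated with compound plus […] and 2 μM forskolin for 30 min at room temperature; cAMP by HTRF against a cAMP standard curve. EC50 from variable-slope sigmoidal fit; Ymax as % of (Pyr1)apelin-13 inhibition.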
On the technique in general: Cyclic AMP is a second messenger, typically raised through Gs and lowered through Gi signalling.

`CCN(c1cccc(C#N)c1)c1c(-c2ccn(C)n2)nc(O)c(S(=O)(=O)c2ccc(-c3cccc(F)c3C(N)=O)cc2)c1O` [Example 215, 4′-((5-((3-cyanophenyl)(ethyl)ami-no)-2,4-dihydroxy-6-(1-methyl-1H-pyrazol-3-yl)pyridin-3-yl)sulfonyl)-3-fluoro-[1,1′-biphenyl]-2-carboxamide]: the EC50 lay in the range of 0.01 to 10 nM. With `CCN(c1cccc(C#N)c1)c1c(-c2ccn(C)n2)nc(O)c(S(=O)(=O)c2ccc(-c3ccccc3C(N)=O)cc2)c1O` [Example 216, 4′-((5-((3-cyanophenyl)(ethyl)ami-no)-2,4-dihydroxy-6-(1-methyl-1H-pyrazol-3-yl)pyridin-3-yl)sulfonyl)-[1,1′-biphenyl]-2-carboxamide] the figure was 0.01 to 10 nM. As for `CCN(c1cccc(C#N)c1)c1c(-c2ccn(C)n2)nc(O)c(S(=O)(=O)c2ccc(-c3cccnc3C)cc2)c1O` [Example 217], the EC50 was 0.01 to 10 nM. With `CCN(c1cccc(C#N)c1)c1c(-c2ccn(C)n2)nc(O)c(S(=O)(=O)c2ccc(-c3ccccc3C(=O)NC3CC3)cc2)c1O` [Example 218, 4′-((5-((3-cyanophenyl)(ethyl)ami-no)-2,4-dihydroxy-6-(1-methyl-1H-pyrazol-3-yl)pyridin-3-y)sulfonyl)-N-cyclopropyl-[1,1′-biphenyl]-2-carboxamide] the figure was 0.01 to 10 nM.

For orientation: EC50 means the concentration giving half of the maximal effect.
